Values joined by “and” are separate entries in the source; they are usually repeats but may differ in a detail not shown here. Equal values may be shown once. Read-outs that look alike come from different tables or passages of the source.
Assays:
[1] = Body weight in pilot study of collagen induced arthritis (CIA) in mice; conditions: MP1032 1 mg/kg/day alone, intraperitoneally
[2] = tested on: IL-6 production, LPS stimulated RAW264.7 cells; test: IL-6 levels (ELISA) in supernatants of LPS stimulated RAW264.7 cells; assay type: cell-based, mouse
Description: Raw264.7 cells (leukemia transformed monocytic-macrophage cell line derived from mouse ascitic fluid) were grown in Dulbecco's Modified Eagle's Medium enriched with glutamine and fetal calf serum and maintained at 37° C. and 5% CO2.
Two experimental parts were performed.

[3] = Case report rheumatoid arthritis; assay type: in vivo, human; conditions: person, 10 mg prednisone retard tablets once daily
Source text: A person was diagnosed with rheumatoid arthritis a few months after experiencing first symptoms.

[4] = Schumann et al. 2020; cited from earlier work

Nc1cccc2c(=O)[nH][nH]c(=O)c12.[Na]
Body weight on day 45, median [1]: (23.6, n = 11) g
Percentage inhibition of IL-6 production ([2]; Exp Part 1, MP1032 0.025 mM alone, sodium salt): 17% and 17.03%
Percentage inhibition of IL-6 production ([2]; Exp Part 1, MP1032 0.05 mM alone, sodium salt): 25.8% and 25.77%
Percentage inhibition of IL-6 production ([2]; Exp Part 1, MP1032 0.1 mM alone): 44.85%
Percentage inhibition of IL-6 production ([2]; Exp Part 1, MP1032 0.25 mM alone): 53.95%
Percentage inhibition of IL-6 production ([2]; Exp Part 1, MP1032 0.5 mM alone): 56.70%
Percentage inhibition of IL-6 production ([2]; Exp Part 1, MP1032 1 mM alone): 72.75%
Percentage inhibition of IL-6 production ([2]; Exp Part 2, MP1032 0.025 mM alone): 1.57%
Percentage inhibition of IL-6 production ([2]; Exp Part 2, MP1032 0.05 mM alone): 0%
Percentage inhibition of IL-6 production ([2]; Exp Part 2, MP1032 0.1 mM alone): 0%
Percentage inhibition of IL-6 production ([2]; Exp Part 2, MP1032 0.25 mM alone): 13.85%
Percentage inhibition of IL-6 production ([2]; Exp Part 2, MP1032 0.5 mM alone): 47.52%
Percentage inhibition of IL-6 production ([2]; Exp Part 2, MP1032 1 mM alone): 67.30%

C[C@]12C=CC(=O)C=C1CC[C@@H]1[C@@H]2C(=O)C[C@@]2(C)[C@H]1CC[C@]2(O)C(=O)CO [prednisone]
pain and inflammation ([3]; rheumatoid arthritis, within months): improved
body weight [3]: started to gain weight

C[C@@H]1C[C@H]2[C@@H]3CCC4=CC(=O)C=C[C@]4(C)[C@@]3(F)[C@@H](O)C[C@]2(C)[C@@]1(O)C(=O)CO [Dexamethasone, dexamethasone, reference compound]
Percentage inhibition of IL-6 production ([2]; Exp Part 1, dexamethasone 0.01 μM alone): 34.66%
inhibition at 0.01 µM ([2]; Mus musculus, RAW264.7, Exp Part 1, dexamethasone 0.01 μM alone, read-out: Percentage inhibition of IL-6 production): 34.7%
inhibition at 0.1 µM ([2]; Mus musculus, RAW264.7, Exp Part 1, dexamethasone 0.1 μM alone, read-out: Percentage inhibition of IL-6 production): 63.8%
inhibition at 1 µM ([2]; Mus musculus, RAW264.7, Exp Part 1, dexamethasone 1 μM alone, read-out: Percentage inhibition of IL-6 production): 87%
inhibition at 0.0003 µM ([2]; Mus musculus, RAW264.7, Exp Part 2, dexamethasone 0.0003 μM alone, read-out: Percentage inhibition of IL-6 production): 1.57%
inhibition at 0.0006 µM ([2]; Mus musculus, RAW264.7, Exp Part 2, dexamethasone 0.0006 μM alone, read-out: Percentage inhibition of IL-6 production): 4.07%
inhibition at 0.0012 µM ([2]; Mus musculus, RAW264.7, Exp Part 2, dexamethasone 0.0012 μM alone, read-out: Percentage inhibition of IL-6 production): 0%
inhibition at 0.0025 µM ([2]; Mus musculus, RAW264.7, Exp Part 2, dexamethasone 0.0025 μM alone, read-out: Percentage inhibition of IL-6 production): 4.16%
inhibition at 0.005 µM ([2]; Mus musculus, RAW264.7, Exp Part 2, dexamethasone 0.005 μM alone, read-out: Percentage inhibition of IL-6 production): 30.6%
inhibition at 0.01 µM ([2]; Mus musculus, RAW264.7, Exp Part 2, dexamethasone 0.01 μM alone, read-out: Percentage inhibition of IL-6 production): 36.3%

Nc1cccc2c(=O)[nH][nH]c(=O)c12
tolerability [4]: well tolerated

From patent US20230241060A1, “GLUCOCORTICOID-SPARING AGENT” (METRIOPHARM AG, priority 2020, published 2023)
